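Tested at 5 concentrations; 48 h exposure; 96-well plates; endpoints linearly interpolated, else capped at highest concentration. GI50: concentration for 50% inhibition of growth. The concentration for full growth arrest is given as TGI.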
Key:
Test in all cases: NCI-60 cell line screen, 48 h
SK-MEL-28 melanoma = test system: SK-MEL-28 melanoma
NCI-H522 lung = test system: NCI-H522 lung
SN12C renal = test system: SN12C renal
HCT-116 colon = test system: HCT-116 colon
HCC-2998 colon = test system: HCC-2998 colon
SF-539 CNS = test system: SF-539 CNS
NCI-H460 lung = test system: NCI-H460 lung
786-0 renal = test system: 786-0 renal
MCF7 breast = test system: MCF7 breast
HCT-15 colon = test system: HCT-15 colon
SF-268 CNS = test system: SF-268 CNS
SW-620 colon = test system: SW-620 colon
LOX IMVI melanoma = test system: LOX IMVI melanoma
RPMI-8226 leukemia = test system: RPMI-8226 leukemia
OVCAR-4 ovarian = test system: OVCAR-4 ovarian
T-47D breast = test system: T-47D breast
UO-31 renal = test system: UO-31 renal
IGROV1 ovarian = test system: IGROV1 ovarian
SF-295 CNS = test system: SF-295 CNS
UACC-62 melanoma = test system: UACC-62 melanoma
K-562 leukemia = test system: K-562 leukemia
UACC-257 melanoma = test system: UACC-257 melanoma
A549 NSCLC = test system: A549 NSCLC
HT29 colon = test system: HT29 colon
M14 melanoma = test system: M14 melanoma
ACHN renal = test system: ACHN renal
DU-145 prostate = test system: DU-145 prostate
SNB-19 CNS = test system: SNB-19 CNS
SK-MEL-5 melanoma = test system: SK-MEL-5 melanoma
RXF 393 renal = test system: RXF 393 renal
KM12 colon = test system: KM12 colon
MDA-MB-231 breast = test system: MDA-MB-231 breast
NCI-H23 lung = test system: NCI-H23 lung
HL-60(TB) leukemia = test system: HL-60(TB) leukemia
OVCAR-3 ovarian = test system: OVCAR-3 ovarian
MALME-3M melanoma = test system: MALME-3M melanoma
MOLT-4 leukemia = test system: MOLT-4 leukemia
BT-549 breast = test system: BT-549 breast
OVCAR-8 ovarian = test system: OVCAR-8 ovarian
SK-MEL-2 melanoma = test system: SK-MEL-2 melanoma
SR leukemia = test system: SR leukemia
HOP-62 NSCLC = test system: HOP-62 NSCLC
MDA-MB-435 = test system: MDA-MB-435
EKVX NSCLC = test system: EKVX NSCLC
SNB-75 CNS = test system: SNB-75 CNS
U251 CNS = test system: U251 CNS
CCRF-CEM leukemia = test system: CCRF-CEM leukemia
PC-3 prostate = test system: PC-3 prostate
HS 578T breast = test system: HS 578T breast
HOP-92 NSCLC = test system: HOP-92 NSCLC
TK-10 renal = test system: TK-10 renal
OVCAR-5 ovarian = test system: OVCAR-5 ovarian
CAKI-1 renal = test system: CAKI-1 renal
NCI/ADR-RES ovarian = test system: NCI/ADR-RES ovarian

C=C1CC[C@@H]2C(C)(C)[C@H](O)CC[C@@]2(C)[C@@H]1COc1ccc2ccc(=O)oc2c1
GI50 (SK-MEL-28 melanoma): 28.7 µM
TGI (SK-MEL-28 melanoma): 80.6 µM
GI50 (NCI-H522 lung): 21.2 µM
TGI (NCI-H522 lung): 77.4 µM
GI50 (SN12C renal): 28.2 µM
TGI (SN12C renal): > 100 µM
GI50 (HCT-116 colon): 26 µM
TGI (HCT-116 colon): 81.4 µM
GI50 (HCC-2998 colon): 42.3 µM
TGI (HCC-2998 colon): > 100 µM
GI50 (SF-539 CNS): 29.9 µM
TGI (SF-539 CNS): > 100 µM
GI50 (NCI-H460 lung): 26.5 µM
TGI (NCI-H460 lung): 71.1 µM
GI50 (786-0 renal): 25 µM
TGI (786-0 renal): 68 µM
GI50 (MCF7 breast): 24.3 µM
TGI (MCF7 breast): 80.8 µM
GI50 (HCT-15 colon): 27 µM
TGI (HCT-15 colon): > 100 µM
GI50 (SF-268 CNS): 28.4 µM
TGI (SF-268 CNS): 90.6 µM
GI50 (SW-620 colon): 34.5 µM
TGI (SW-620 colon): > 100 µM
GI50 (LOX IMVI melanoma): 23.3 µM
TGI (LOX IMVI melanoma): 56.5 µM
GI50 (RPMI-8226 leukemia): 15.6 µM
TGI (RPMI-8226 leukemia): 51.9 µM
GI50 (OVCAR-4 ovarian): 17.2 µM
TGI (OVCAR-4 ovarian): 56.6 µM
GI50 (T-47D breast): 14.6 µM
TGI (T-47D breast): 64.1 µM
TGI (UO-31 renal): 38.4 µM
GI50 (IGROV1 ovarian): 27.7 µM
TGI (IGROV1 ovarian): > 100 µM
GI50 (SF-295 CNS): 21.3 µM
TGI (SF-295 CNS): 62.4 µM
TGI (UACC-62 melanoma): 48.4 µM
GI50 (K-562 leukemia): 26.9 µM
TGI (K-562 leukemia): > 100 µM
GI50 (UACC-257 melanoma): 26.9 µM
TGI (UACC-257 melanoma): 69.5 µM
GI50 (A549 NSCLC): 21.9 µM
TGI (A549 NSCLC): 60 µM
GI50 (HT29 colon): 32.3 µM
TGI (HT29 colon): > 100 µM
GI50 (M14 melanoma): 22.5 µM
TGI (M14 melanoma): 55.5 µM
GI50 (ACHN renal): 31.6 µM
TGI (ACHN renal): > 100 µM
GI50 (DU-145 prostate): 30.1 µM
TGI (DU-145 prostate): > 100 µM
GI50 (SNB-19 CNS): 33.7 µM
TGI (SNB-19 CNS): > 100 µM
GI50 (SK-MEL-5 melanoma): 17.9 µM
TGI (SK-MEL-5 melanoma): 37 µM
GI50 (RXF 393 renal): 20.4 µM
TGI (RXF 393 renal): 79.5 µM
GI50 (KM12 colon): 21.1 µM
TGI (KM12 colon): 51 µM
GI50 (MDA-MB-231 breast): 30.4 µM
TGI (MDA-MB-231 breast): > 100 µM
GI50 (NCI-H23 lung): 24.5 µM
TGI (NCI-H23 lung): 70.1 µM
GI50 (HL-60(TB) leukemia): 24.1 µM
TGI (HL-60(TB) leukemia): 57.6 µM
GI50 (OVCAR-3 ovarian): 22.3 µM
TGI (OVCAR-3 ovarian): 56 µM
GI50 (MALME-3M melanoma): 20.3 µM
TGI (MALME-3M melanoma): 64.2 µM
GI50 (MOLT-4 leukemia): 23.9 µM
TGI (MOLT-4 leukemia): 62 µM
GI50 (BT-549 breast): 20.6 µM
TGI (BT-549 breast): 64.1 µM
GI50 (OVCAR-8 ovarian): 24.2 µM
TGI (OVCAR-8 ovarian): 71 µM
GI50 (SK-MEL-2 melanoma): 23.9 µM
TGI (SK-MEL-2 melanoma): 65.3 µM
GI50 (SR leukemia): 40 µM
TGI (SR leukemia): > 100 µM
GI50 (HOP-62 NSCLC): 28.2 µM
TGI (HOP-62 NSCLC): > 100 µM
GI50 (MDA-MB-435): 25.3 µM
TGI (MDA-MB-435): 72.3 µM
GI50 (EKVX NSCLC): 29 µM
TGI (EKVX NSCLC): > 100 µM
TGI (SNB-75 CNS): 46.3 µM
GI50 (U251 CNS): 27.5 µM
TGI (U251 CNS): > 100 µM
GI50 (CCRF-CEM leukemia): 28.4 µM
TGI (CCRF-CEM leukemia): > 100 µM
GI50 (PC-3 prostate): 19.7 µM
TGI (PC-3 prostate): 66.3 µM
GI50 (HS 578T breast): 25.1 µM
TGI (HS 578T breast): 86.8 µM
GI50 (HOP-92 NSCLC): 12.5 µM
TGI (HOP-92 NSCLC): 70.5 µM
GI50 (TK-10 renal): 35.6 µM
TGI (TK-10 renal): > 100 µM
GI50 (OVCAR-5 ovarian): 38.2 µM
TGI (OVCAR-5 ovarian): > 100 µM
GI50 (CAKI-1 renal): 23.2 µM
TGI (CAKI-1 renal): 74.5 µM
GI50 (NCI/ADR-RES ovarian): 22.9 µM
TGI (NCI/ADR-RES ovarian): 62.7 µM

— PubChem BioAssay (NCI)
